Consider 15 molecules from patent US20110257208A1, “COMPOUNDS USEFUL AS FAAH MODULATORS AND USES THEREOF” (priority 2008, published 2011).

Structures are written as SMILES.

In the assay the target is T1, hFAAH (Homo sapiens, UniProt O00519).
T1 construct: expressed in transfected cells; host or cells: HEK293-TRex (Invitrogen) stably transfected with hFAAH in the pcDNA5-Tet-off vector, or T84 human colon epithelial cells (endogenous hFAAH); used as a microsomal preparation
T1 sequence (O00519 1-579): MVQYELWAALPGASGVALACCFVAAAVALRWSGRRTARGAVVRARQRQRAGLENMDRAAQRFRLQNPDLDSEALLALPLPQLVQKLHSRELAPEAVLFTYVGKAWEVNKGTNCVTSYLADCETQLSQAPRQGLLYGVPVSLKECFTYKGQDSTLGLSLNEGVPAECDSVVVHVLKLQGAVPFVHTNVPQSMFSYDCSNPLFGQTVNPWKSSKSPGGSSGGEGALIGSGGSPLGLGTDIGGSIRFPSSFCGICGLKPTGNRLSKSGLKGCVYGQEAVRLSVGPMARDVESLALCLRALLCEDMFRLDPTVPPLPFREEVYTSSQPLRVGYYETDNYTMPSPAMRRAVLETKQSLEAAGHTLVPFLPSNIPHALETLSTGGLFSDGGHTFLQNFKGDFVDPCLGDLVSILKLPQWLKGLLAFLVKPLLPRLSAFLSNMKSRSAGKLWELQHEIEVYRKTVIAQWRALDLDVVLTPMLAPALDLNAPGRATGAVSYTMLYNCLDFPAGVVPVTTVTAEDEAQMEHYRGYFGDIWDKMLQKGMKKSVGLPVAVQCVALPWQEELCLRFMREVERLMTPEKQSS
The assay can be described thus: Fluorimetric assay with hFAAH microsomes (enzymatic, fluorescence based). It is filed as biochemical. To be noted: compound at 1 uM, AA-AMC substrate. The method in brief: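 Microsomes from T84 cells (endogenous hFAAH) or doxycycline-induced HEK293-TRex cells stably expressing hFAAH, 10 μg per well, in 50 mM HEPES pH 7.4, 1 mM EDTA, 1.4 mg/mL BSA with 2 μM AA-AMC. Kinetic fluorescence read (ex 355/em 460 nm, 275 cycles); activity as % inhibition, 7 concentrations in duplicate.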
The inhibition is the share of the control response that was lost under treatment. Read a high inhibition as a response far below the control. The molecule `Cc1cnccc1CN1Cc2ncnc(Nc3cnc4ccccc4c3)c2C1` [Compound 78, [6-(3-Methyl-pyridin-4-ylmethyl)-6,7-dihydro-5H-pyrrolo[3,4-d]pyrimidin-4-yl]-quinolin-3-yl-amine] displayed an inhibition at 1 µM of more than 75%.

`O=C(NCC1CCCCC1)N1Cc2ncnc(Nc3cnc4ccccc4c3)c2C1` [Compound 46, 4-(Quinolin-3-ylamino)-5,7-dihydro-pyrrolo[3,4-d]pyrimidine-6-carboxylic acid cyclohexylmethyl-amide] showed an inhibition at 1 µM of less than 25%.

With `Cc1ncc(CN2Cc3ncnc(Nc4cnc5ccccc5c4)c3C2)s1` [Compound 69, [6-(2-Methyl-thiazol-5-ylmethyl)-6,7-dihydro-5H-pyrrolo[3,4-d]pyrimidin-4-yl]-quinolin-3-yl-amine], the inhibition at 1 µM was more than 50%.

As for `Cc1ncccc1CN1Cc2ncnc(Nc3cnc4ccccc4c3)c2C1` [Compound 17, [6-(2-Methyl-pyridin-3-ylmethyl)-6,7-dihydro-5H-pyrrolo[3,4-d]pyrimidin-4-yl]-quinolin-3-yl-amine], the inhibition at 1 µM is more than 75%.

`Cc1ccc(C)c(CN2Cc3ncnc(Nc4cnc5ccccc5c4)c3C2)c1` [Compound 89, [6-(2,5-Dimethyl-benzyl)-6,7-dihydro-5H-pyrrolo[3,4-d]pyrimidin-4-yl]-quinolin-3-yl-amine]: the inhibition at 1 µM is more than 75%.

`Cc1ccccc1CN1Cc2ncnc(Nc3cnc4ccccc4c3)c2C1` [Compound 92, [6-(2-Methyl-benzyl)-6,7-dihydro-5H-pyrrolo[3,4-d]pyrimidin-4-yl]-quinolin-3-yl-amine]: the inhibition at 1 µM was more than 75%.

In turn, `c1ccc2ncc(Nc3ncnc4c3CN(Cc3ccncc3)C4)cc2c1` [Compound 94, (6-Pyridin-4-ylmethyl-6,7-dihydro-5H-pyrrolo[3,4-d]pyrimidin-4-yl)-quinolin-3-yl-amine] displayed an inhibition at 1 µM of more than 75%.

Molecule `O=C(CN1CCCC1)N1Cc2ncnc(Nc3cnc4ccccc4c3)c2C1` [Compound 54, 2-Pyrrolidin-1-yl-1-[4-(quinolin-3-ylamino)-5,7-dihydro-pyrrolo[3,4-d]pyrimidin-6-yl]-ethanone] returned an inhibition at 1 µM of less than 25%.

`Clc1ccccc1CN1Cc2ncnc(Nc3cnc4ccccc4c3)c2C1` [Compound 84, [6-(2-Chloro-benzyl)-6,7-dihydro-5H-pyrrolo[3,4-d]pyrimidin-4-yl]-quinolin-3-yl-amine] registered an inhibition at 1 µM of more than 75%.

The molecule `Cc1nc(C(F)(F)F)ccc1CN1Cc2ncnc(Nc3cnc4ccccc4c3)c2C1` [Compound 74, [6-(2-Methyl-6-trifluoromethyl-pyridin-3-ylmethyl)-6,7-dihydro-5H-pyrrolo[3,4-d]pyrimidin-4-yl]-quinolin-3-yl-amine] returned an inhibition at 1 µM of more than 25%.

Consider `Cc1nc(C)c(CC(=O)N2Cc3ncnc(Nc4cnc5ccccc5c4)c3C2)s1` [Compound 50, 2-(2,4-Dimethyl-thiazol-5-yl)-1-[4-(quinolin-3-ylamino)-5,7-dihydro-pyrrolo[3,4-d]pyrimidin-6-yl]-ethanone], for which the inhibition at 1 µM was less than 25%.

In the case of `Cc1cccc(C)c1CN1Cc2ncnc(Nc3cnc4ccccc4c3)c2C1` [Compound 88, [6-(2,6-Dimethyl-benzyl)-6,7-dihydro-5H-pyrrolo[3,4-d]pyrimidin-4-yl]-quinolin-3-yl-amine], the inhibition at 1 µM is more than 50%.

The molecule `Cc1nc(C)c(S(=O)(=O)N2Cc3ncnc(Nc4cnc5ccccc5c4)c3C2)s1` [Compound 61, [6-(2,4-Dimethyl-thiazole-5-sulfonyl)-6,7-dihydro-5H-pyrrolo[3,4-d]pyrimidin-4-yl]-quinolin-3-yl-amine] returned an inhibition at 1 µM of more than 50%.

Molecule `c1ccc2ncc(Nc3ncnc4c3CN(C3CCCCC3)C4)cc2c1` [Compound 23, (6-Cyclohexyl-6,7-dihydro-5H-pyrrolo[3,4-d]pyrimidin-4-yl)-quinolin-3-yl-amine] had an inhibition at 1 µM of more than 25%.

Molecule `CN1CCC(CN2Cc3ncnc(Nc4cnc5ccccc5c4)c3C2)CC1` [Compound 27, [6-(1-Methyl-piperidin-4-ylmethyl)-6,7-dihydro-5H-pyrrolo[3,4-d]pyrimidin-4-yl]-quinolin-3-yl-amine] came in with an inhibition at 1 µM of less than 25%.
